In PubChem BioAssay AID248 (DTP/NCI, 2004):
“And” between values parts separate entries of the source, which are not always exact repeats. Equal values may be shown once. Inconclusive results and toxic doses are left out. Rule as the data show it: active = T/C of 150% or more; inactive = T/C below 125%.

Test system: L1210 leukemia ip in BDF1 mice, survival T/C
Assay: NCI In Vivo Anticancer Drug Screen. Data for tumor model L1210 Leukemia (intraperitoneal) in B6D2F1 (BDF1) mice
Conditions: endpoint: mean survival time, higher = longer survival
Procedure, shortened: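 Tumor was transplanted into mice, which were then dosed with test compound or vehicle alone. Survival was recorded for each group, and the treated figure was expressed relative to the control figure.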

Measured: T/C

O=C1NC(c2cccc3ccccc23)Nc2ccccc21 (centres undefined)
inactive: dose: 12.5 mg/kg/injection, schedule: Q01DX009 (oral), vehicle: Klucel (hydroxypropylcellulose) (HPC) 111 % of control | dose: 12.5 mg/kg/injection, schedule: Q01DX009 (oral), vehicle: methylcellulose (MC) 103 % of control and 109 % of control | dose: 16.0 mg/kg/injection, schedule: Q01DX009 (ip), vehicle: Klucel (hydroxypropylcellulose) (HPC) 100 % of control | dose: 16.0 mg/kg/injection, schedule: Q01DX009 (sc), vehicle: Klucel (hydroxypropylcellulose) (HPC) 98 % of control | dose: 16.0 mg/kg/injection, schedule: Q03HX008 (ip), vehicle: Klucel (hydroxypropylcellulose) (HPC) 109 % of control | dose: 16.0 mg/kg/injection, schedule: Q03HX016 (ip), vehicle: Klucel (hydroxypropylcellulose) (HPC) 104 % of control | dose: 16.0 mg/kg/injection, schedule: Q03HX024 (ip), vehicle: Klucel (hydroxypropylcellulose) (HPC) 102 % of control | dose: 32.0 mg/kg/injection, schedule: Q01DX009 (ip), vehicle: Klucel (hydroxypropylcellulose) (HPC) 98 % of control | dose: 32.0 mg/kg/injection, schedule: Q01DX009 (sc), vehicle: Klucel (hydroxypropylcellulose) (HPC) 102 % of control | dose: 40.0 mg/kg/injection, schedule: Q01DX009 (ip), vehicle: methylcellulose (MC) 110 % of control | dose: 40.0 mg/kg/injection, schedule: Q01DX009 (ip), vehicle: other 107 % of control | dose: 40.0 mg/kg/injection, schedule: Q01DX009 (oral), vehicle: Klucel (hydroxypropylcellulose) (HPC) 98 % of control and 100 % of control | dose: 40.0 mg/kg/injection, schedule: Q01DX009 (oral), vehicle: methylcellulose (MC) 110 % of control | dose: 50.0 mg/kg/injection, schedule: Q01DX009 (oral), vehicle: other 106 % of control | dose: 60.0 mg/kg/injection, schedule: Q01DX009 (oral), vehicle: Klucel (hydroxypropylcellulose) (HPC) 100 % of control and 104 % of control | dose: 60.0 mg/kg/injection, schedule: Q01DX009 (oral), vehicle: methylcellulose (MC) 103 % of control | dose: 62.5 mg/kg/injection, schedule: Q01DX005 (oral), vehicle: saline 97 % of control | dose: 62.5 mg/kg/injection, schedule: Q01DX009 (oral), vehicle: saline 97 % of control | dose: 62.5 mg/kg/injection, schedule: Q01DX009 (oral), vehicle: water 104 % of control | dose: 62.5 mg/kg/injection, schedule: Q04DX003 (oral), vehicle: saline 105 % of control | dose: 64.0 mg/kg/injection, schedule: Q01DX009 (ip), vehicle: Klucel (hydroxypropylcellulose) (HPC) 108 % of control | dose: 64.0 mg/kg/injection, schedule: Q01DX009 (sc), vehicle: Klucel (hydroxypropylcellulose) (HPC) 97 % of control | dose: 80.0 mg/kg/injection, schedule: Q01DX009 (ip), vehicle: methylcellulose (MC) 101 % of control | dose: 80.0 mg/kg/injection, schedule: Q01DX009 (oral), vehicle: Klucel (hydroxypropylcellulose) (HPC) 109 % of control | dose: 80.0 mg/kg/injection, schedule: Q01DX009 (oral), vehicle: methylcellulose (MC) 105 % of control and 110 % of control | dose: 100.0 mg/kg/injection, schedule: Q01DX009 (oral), vehicle: Klucel (hydroxypropylcellulose) (HPC) 100 % of control | dose: 100.0 mg/kg/injection, schedule: Q01DX009 (oral), vehicle: saline 104 % of control and 106 % of control | dose: 100.0 mg/kg/injection, schedule: Q04DX003 (ip), vehicle: other 103 % of control | dose: 100.0 mg/kg/injection, schedule: Q04DX003 (oral), vehicle: Klucel (hydroxypropylcellulose) (HPC) 98 % of control and 104 % of control | dose: 100.0 mg/kg/injection, schedule: Q04DX003 (oral), vehicle: methylcellulose (MC) 104 % of control and 107 % of control | dose: 100.0 mg/kg/injection, schedule: Q04DX003 (oral), vehicle: other 105 % of control | dose: 120.0 mg/kg/injection, schedule: Q01DX009 (oral), vehicle: Klucel (hydroxypropylcellulose) (HPC) 104 % of control | dose: 120.0 mg/kg/injection, schedule: Q01DX009 (oral), vehicle: methylcellulose (MC) 98 % of control | dose: 125.0 mg/kg/injection, schedule: Q01DX005 (oral), vehicle: saline 110 % of control | dose: 125.0 mg/kg/injection, schedule: Q01DX009 (oral), vehicle: Klucel (hydroxypropylcellulose) (HPC) 105 % of control | dose: 125.0 mg/kg/injection, schedule: Q01DX009 (oral), vehicle: saline 103 % of control | dose: 125.0 mg/kg/injection, schedule: Q04DX003 (oral), vehicle: saline 102 % of control | dose: 125.0 mg/kg/injection, schedule: Q04DX003 (oral), vehicle: water 106 % of control | dose: 125.0 mg/kg/injection, schedule: Q07DX002 (ip), vehicle: water 103 % of control | dose: 128.0 mg/kg/injection, schedule: Q01DX001 (ip), vehicle: Klucel (hydroxypropylcellulose) (HPC) 103 % of control | dose: 128.0 mg/kg/injection, schedule: Q01DX001 (sc), vehicle: Klucel (hydroxypropylcellulose) (HPC) 100 % of control | dose: 128.0 mg/kg/injection, schedule: Q01DX009 (ip), vehicle: Klucel (hydroxypropylcellulose) (HPC) 94 % of control | dose: 128.0 mg/kg/injection, schedule: Q01DX009 (sc), vehicle: Klucel (hydroxypropylcellulose) (HPC) 103 % of control | dose: 128.0 mg/kg/injection, schedule: Q04DX003 (ip), vehicle: Klucel (hydroxypropylcellulose) (HPC) 99 % of control | dose: 128.0 mg/kg/injection, schedule: Q08DX002 (ip), vehicle: Klucel (hydroxypropylcellulose) (HPC) 97 % of control | dose: 140.0 mg/kg/injection, schedule: Q01DX009 (ip), vehicle: other 104 % of control | dose: 140.0 mg/kg/injection, schedule: Q01DX009 (oral), vehicle: Klucel (hydroxypropylcellulose) (HPC) 104 % of control and 105 % of control | dose: 140.0 mg/kg/injection, schedule: Q01DX009 (oral), vehicle: methylcellulose (MC) 109 % of control and 111 % of control | dose: 150.0 mg/kg/injection, schedule: Q01DX009 (oral), vehicle: Klucel (hydroxypropylcellulose) (HPC) 107 % of control | dose: 150.0 mg/kg/injection, schedule: Q01DX009 (oral), vehicle: other 108 % of control | dose: 150.0 mg/kg/injection, schedule: Q01DX009 (oral), vehicle: saline 108 % of control | dose: 150.0 mg/kg/injection, schedule: Q04DX003 (ip), vehicle: other 98 % of control | dose: 150.0 mg/kg/injection, schedule: Q04DX003 (oral), vehicle: Klucel (hydroxypropylcellulose) (HPC) 107 % of control and 111 % of control | dose: 150.0 mg/kg/injection, schedule: Q04DX003 (oral), vehicle: methylcellulose (MC) 104 % of control and 105 % of control | dose: 175.0 mg/kg/injection, schedule: Q01DX009 (oral), vehicle: methylcellulose (MC) 105 % of control and 108 % of control | dose: 200.0 mg/kg/injection, schedule: Q04DX003 (ip), vehicle: other 96 % of control | dose: 200.0 mg/kg/injection, schedule: Q04DX003 (oral), vehicle: Klucel (hydroxypropylcellulose) (HPC) 95 % of control and 104 % of control | dose: 200.0 mg/kg/injection, schedule: Q04DX003 (oral), vehicle: methylcellulose (MC) 98 % of control and 104 % of control | dose: 200.0 mg/kg/injection, schedule: Q04DX003 (oral), vehicle: other 108 % of control | dose: 225.0 mg/kg/injection, schedule: Q01DX009 (oral), vehicle: methylcellulose (MC) 110 % of control | dose: 250.0 mg/kg/injection, schedule: Q01DX005 (oral), vehicle: saline 107 % of control | dose: 250.0 mg/kg/injection, schedule: Q01DX009 (oral), vehicle: saline 103 % of control | dose: 250.0 mg/kg/injection, schedule: Q04DX003 (ip), vehicle: Klucel (hydroxypropylcellulose) (HPC) 103 % of control | dose: 250.0 mg/kg/injection, schedule: Q04DX003 (oral), vehicle: Klucel (hydroxypropylcellulose) (HPC) 108 % of control | dose: 250.0 mg/kg/injection, schedule: Q04DX003 (oral), vehicle: methylcellulose (MC) 103 % of control and 104 % of control | dose: 250.0 mg/kg/injection, schedule: Q04DX003 (oral), vehicle: saline 105 % of control | dose: 250.0 mg/kg/injection, schedule: Q04DX003 (oral), vehicle: water 104 % of control | dose: 250.0 mg/kg/injection, schedule: Q07DX002 (ip), vehicle: water 97 % of control | dose: 256.0 mg/kg/injection, schedule: Q01DX001 (ip), vehicle: Klucel (hydroxypropylcellulose) (HPC) 103 % of control | dose: 256.0 mg/kg/injection, schedule: Q01DX001 (sc), vehicle: Klucel (hydroxypropylcellulose) (HPC) 101 % of control | dose: 256.0 mg/kg/injection, schedule: Q01DX009 (sc), vehicle: Klucel (hydroxypropylcellulose) (HPC) 94 % of control | dose: 256.0 mg/kg/injection, schedule: Q04DX003 (ip), vehicle: Klucel (hydroxypropylcellulose) (HPC) 111 % of control | dose: 256.0 mg/kg/injection, schedule: Q08DX002 (ip), vehicle: Klucel (hydroxypropylcellulose) (HPC) 111 % of control | dose: 300.0 mg/kg/injection, schedule: Q04DX003 (ip), vehicle: Klucel (hydroxypropylcellulose) (HPC) 94 % of control | dose: 300.0 mg/kg/injection, schedule: Q04DX003 (oral), vehicle: Klucel (hydroxypropylcellulose) (HPC) 109 % of control and 111 % of control | dose: 300.0 mg/kg/injection, schedule: Q04DX003 (oral), vehicle: methylcellulose (MC) 108 % of control | dose: 500.0 mg/kg/injection, schedule: Q01DX005 (oral), vehicle: saline 107 % of control | dose: 500.0 mg/kg/injection, schedule: Q01DX009 (oral), vehicle: saline 110 % of control | dose: 500.0 mg/kg/injection, schedule: Q04DX003 (oral), vehicle: saline 108 % of control | dose: 500.0 mg/kg/injection, schedule: Q04DX003 (oral), vehicle: water 107 % of control | dose: 512.0 mg/kg/injection, schedule: Q01DX001 (sc), vehicle: Klucel (hydroxypropylcellulose) (HPC) 102 % of control | dose: 1000.0 mg/kg/injection, schedule: Q01DX005 (oral), vehicle: saline 108 % of control | dose: 1000.0 mg/kg/injection, schedule: Q04DX003 (oral), vehicle: saline 105 % of control | dose: 1024.0 mg/kg/injection, schedule: Q01DX001 (sc), vehicle: Klucel (hydroxypropylcellulose) (HPC) 100 % of control
